# Data as given in PMC8742467, “Therapeutical interference with the epigenetic landscape of germ cell tumors: a comparative drug study and new mechanistical insights” (Clinical Epigenetics, 2022).
# pEC50: −log10 of the molar value.
# Legend:
# [1] = test system: GCT cell lines; experiment: XTT cell viability assay, GCT cell lines (pre-screen / summary); format: cell-based, Human; details: first pre-screen, SE and EC proxies TCam-2 and 2102EP, XTT
# Method: (§1) The […] (XTT) assays were performed as described previously. In summary, for GCT and fibroblast cell lines 5 × 10^3 cells (3 × 10^3 for UC, PCa and RCC cell lines) per 96-well were seeded and different drug concentrations (see Additional file 2: Fig. S2, Additional file 3: Fig. S3) or corresponding solvents were added to the cells the following day. For drug details see Additional file 12: Table S2 C. Each condition was analyzed in four technical replicates and EC50 values were calculated by GraphPad Prism v8.
# [2] = test system: transcriptome of 2102EP cells; experiment: RNA sequencing; format: cell-based, Human; details: 16 h
# Method: Transcriptome analysis has been performed as previously described at the core facility ‘Genomics & Transcriptomics’ (Prof. Dr. Karl Köhrer, Biomedical Research Center, Heinrich Heine University, Düsseldorf, Germany) and has been publicly shared via GEO (https://www.ncbi.nlm.nih.gov/geo/, GSE189472). RNA samples were quantified and measured as previously described. Statistical analyses were performed using the ‘Differential Expression in two groups’ tool (version 1.02) (Qiagen) and the resulting p values were corrected for multiple testing by false discovery rate (FDR). Accompanying PCA and heatmap were generated using Qlucore Omics Explorer 3.7 (Qlucore AB, Lund, Sweden). Values of solvent controls wereaveraged from the studies GSE189472, GSE190792 and GSE190022 [95].
# [3] = test system: phosphorylated kinase targets in 2102EP cells; experiment: Proteome Profiler Human Phospho-Kinase Array; format: cell-based; details: 16 h
# Method: For the detection of phosphorylated kinase targets, the Proteome Profiler Human Phospho-Kinase Array Kit (R&D Systems, Abingdon, UK) was used according to the manufacturer’s instructions. The ChemiDoc Imaging System (Bio-Rad Laboratories, Feldkirchen, Germany) was used for detection. 2102EP cells were harvested after 16 h of treatment with the epi-drugs. Pixel density was analyzed using Fiji ImageJ 1.53c.
# [4] = test system: DNA methylation (5mC, 5hmC) in 2102EP cells; experiment: DNA slot blot (5mC, 5hmC); format: cell-based, Human; details: 24 h
# Method: Purity of DNA was verified using NanoDrop 260/280 ratio and agarose gel electrophoresis. DNA was diluted in H2O to 200 ng, 100 ng and 50 ng in 200 µl per slot. Slot-Blotter device (Carl Roth GmbH + Co KG, Karlsruhe, Germany) was assembled as according to the manual. DNA was blotted onto a positively charged nylon membrane (Carl Roth GmbH + Co KG, Karlsruhe, Germany) using vacuum application. Three identical membranes were prepared. The membranes were air-dried for 15—20 min and UV-crosslinked (20 s (s), 1200 mJ/cm^2). One membrane was stained with methylene blue (0.02% methylene blue (Merck Millipore, Darmstadt, Germany) in 0.3 M sodium acetate (pH 5.2)) to validate DNA loading across the samples. The remaining two membranes were blocked in 5% milk powder in PBST for 1 h at RT. Membranes were incubated with 5mC or 5hmC antibody overnight at 4 °C. After washing, membranes were incubated with secondary antibody for 2 h at RT. Signals were detected using the ChemiDoc Imaging Systems (Bio-Rad Laboratories, Feldkirchen, Germany).
# [5] = test system: histone modifications in 2102EP cells; experiment: Mass spectrometry analysis of histone modifications (Mod Spec); format: cell-based, Human
# Method: 2102EP cells were treated with the EC50 concentrations for Quisinostat, JIB-04, Chaetocin, MZ-1, LP99, PRT4165, GSK343 and DMSO as solvent control. The cells were harvested via trypsinization after 16 h. The mass spectrometric analysis of histone modifications was outsourced to the Mod Spec service by Active Motif (Carlsbad, CA, USA). Histone extraction and mass spectrometric analysis was performed as described previously. Raw data were transformed into z-scores as the input. The heatmap was generated in R using ‘pheatmap’ with default settings and provided by Active Motif.
# [6] = test system: JAR (CC); experiment: XTT cell viability assay, JAR; format: cell-based; details: Homo sapiens, after 48 h, n = 4, read-out: EC50 colour/symbol code, CC JAR
# Method: as §1
# [7] = test system: 2102EP (EC); experiment: XTT cell viability assay, 2102EP; format: cell-based; details: Homo sapiens; after 48 h, XTT, n = 4; read-out: EC50 colour/symbol code, EC 2102EP
# Method: as §1
# [8] = test system: TCam-2 (SE); experiment: XTT cell viability assay, TCam-2; format: cell-based; details: Homo sapiens; after 48 h, XTT, n = 4; read-out: EC50 colour/symbol code, SE TCam-2
# Method: as §1
# [9] = sorted data log2>±1.5, FDR p<0.05
# [10] = 2102EP cells, Mod Spec raw data
# [11] = 2102EP, EC50, 16 h, vs solvent control
compound,measurement,setting,value
Clc1ccc(N/N=C(\c2ccccc2)c2ccccn2)nc1 [JIB-04],EC50 / effective concentration in words,[1],nanomolar range
same,DDIT4 Log2 fold change vs. DMSO,[2]; [9],1.60
same,EIF3CL Log2 fold change vs. DMSO,[2]; [9],-1.72
same,SLC16A3 Log2 fold change vs. DMSO,[2]; [9],1.76
same,A1BG Log2 fold change vs. DMSO,[2]; unsorted data,-0.0173
same,A1CF Log2 fold change vs. DMSO,[2]; unsorted data,-2.00
same,A2M Log2 fold change vs. DMSO,[2]; unsorted data,0.04
same,"CREB, STAT3 and STAT5 phosphorylation and total levels of β-Catenin and HSP60",[3],decreased
same,ERK1/2 phosphorylation,[3],decreased
same,p53 S15 phosphorylation,[3],increased
same,reduction in 5mC levels,[4],27%
same,"H1.4: K25AC, % of peptide pool",[5]; [10],0.003915%
same,"H1.4: K25ME1, % of peptide pool",[5]; [10],2.18%
same,"H1.4: K25ME2, % of peptide pool",[5]; [10],0.06041%
same,"H1.4: K25ME3, % of peptide pool",[5]; [10],0.002903%
same,"H1.4: K25UN, % of peptide pool",[5]; [10],97.7528%
same,"H2A1: K13AC, % of peptide pool",[5]; [10],0.01774%
same,"H2A1: K13UN, % of peptide pool",[5]; [10],99.9823%
same,"H2A1: K15AC, % of peptide pool",[5]; [10],0.006947%
same,"H2A1: K15UB, % of peptide pool",[5]; [10],0%
same,"H2A1: K15UN, % of peptide pool",[5]; [10],99.9931%
same,"H2A3: K13AC, % of peptide pool",[5]; [10],0.0449%
same,"H2A3: K13UN, % of peptide pool",[5]; [10],99.9551%
same,"H2A3: K15AC, % of peptide pool",[5]; [10],0.04676%
same,"H2A3: K15UB, % of peptide pool",[5]; [10],0%
same,"H2A3: K15UN, % of peptide pool",[5]; [10],99.9532%
same,"H2A: K5AC, % of peptide pool",[5]; [10],17.3435%
same,"H2A: K5UN, % of peptide pool",[5]; [10],82.6565%
same,"H2A: K9AC, % of peptide pool",[5]; [10],2.608%
same,"H2A: K9UN, % of peptide pool",[5]; [10],97.3916%
same,"H2A: K36AC, % of peptide pool",[5]; [10],0.02653%
same,"H2A: K36UN, % of peptide pool",[5]; [10],99.9735%
same,"H3: K9AC, % of peptide pool",[5]; [10],0.7026%
same,"H3: K9ME1, % of peptide pool",[5]; [10],34.4011%
same,"H3: K9ME2, % of peptide pool",[5]; [10],29.5437%
same,"H3: K9ME3, % of peptide pool",[5]; [10],3.1432%
same,"H3: K9UN, % of peptide pool",[5]; [10],32.2094%
same,"H3: K14AC, % of peptide pool",[5]; [10],29.7131%
same,"H3: K14UN, % of peptide pool",[5]; [10],70.2869%
same,"H3: K18AC, % of peptide pool",[5]; [10],13.9058%
same,"H3: K18ME1, % of peptide pool",[5]; [10],0.1878%
same,"H3: K18UN, % of peptide pool",[5]; [10],85.9064%
same,"H3: K23AC, % of peptide pool",[5]; [10],21.6519%
same,"H3: K23ME1, % of peptide pool",[5]; [10],0.01047%
same,"H3: K23UN, % of peptide pool",[5]; [10],78.3377%
same,"H3: K56AC, % of peptide pool",[5]; [10],0.09324%
same,"H3: K56ME1, % of peptide pool",[5]; [10],0.04566%
same,"H3: K56UN, % of peptide pool",[5]; [10],99.8611%
same,"H3: K64AC, % of peptide pool",[5]; [10],0.01353%
same,"H3: K64UN, % of peptide pool",[5]; [10],99.9865%
same,"H3: K79AC, % of peptide pool",[5]; [10],0.03684%
same,"H3: K79ME1, % of peptide pool",[5]; [10],12.2939%
same,"H3: K79ME2, % of peptide pool",[5]; [10],5.57%
same,"H3: K79ME3, % of peptide pool",[5]; [10],6.201%
same,"H3: K79UN, % of peptide pool",[5]; [10],75.8979%
same,"H3: K122AC, % of peptide pool",[5]; [10],0.03356%
same,"H3: K122UN, % of peptide pool",[5]; [10],99.9664%
same,"H3: Q19ME1, % of peptide pool",[5]; [10],0.003167%
same,"H3: Q19UN, % of peptide pool",[5]; [10],99.9968%
same,"H3: Q55ME1, % of peptide pool",[5]; [10],0.032%
same,"H3: Q55UN, % of peptide pool",[5]; [10],99.968%
same,"H3: R42ME2, % of peptide pool",[5]; [10],1.896%
same,"H3: R42UN, % of peptide pool",[5]; [10],98.1041%
same,"H3: R49ME2, % of peptide pool",[5]; [10],4.211%
same,"H3: R49UN, % of peptide pool",[5]; [10],95.789%
same,"H3R2UN: K4AC, % of peptide pool",[5]; [10],0.05876%
same,"H3R2UN: K4ME1, % of peptide pool",[5]; [10],17.7716%
same,"H3R2UN: K4ME2, % of peptide pool",[5]; [10],0.2231%
same,"H3R2UN: K4ME3, % of peptide pool",[5]; [10],0.06844%
same,"H3R2UN: K4UN, % of peptide pool",[5]; [10],81.8781%
same,"H3R2UN: Q5ME1, % of peptide pool",[5]; [10],0.02831%
same,"H3R2UN: Q5UN, % of peptide pool",[5]; [10],99.9717%
same,"H3.1: K27AC, % of peptide pool",[5]; [10],2.414%
same,"H3.1: K27ME1, % of peptide pool",[5]; [10],49.3304%
same,"H3.1: K27ME2, % of peptide pool",[5]; [10],16.204%
same,"H3.1: K27ME3, % of peptide pool",[5]; [10],1.814%
same,"H3.1: K27UN, % of peptide pool",[5]; [10],30.2382%
same,"H3.1: K36AC, % of peptide pool",[5]; [10],0.1106%
same,"H3.1: K36ME1, % of peptide pool",[5]; [10],13.2702%
same,"H3.1: K36ME2, % of peptide pool",[5]; [10],51.7553%
same,"H3.1: K36ME3, % of peptide pool",[5]; [10],20.9267%
same,"H3.1: K36UN, % of peptide pool",[5]; [10],13.9372%
same,"H3.3: K27AC, % of peptide pool",[5]; [10],4.408%
same,"H3.3: K27M, % of peptide pool",[5]; [10],0%
same,"H3.3: K27ME1, % of peptide pool",[5]; [10],52.2182%
same,"H3.3: K27ME2, % of peptide pool",[5]; [10],11.913%
same,"H3.3: K27ME3, % of peptide pool",[5]; [10],2.973%
same,"H3.3: K27UN, % of peptide pool",[5]; [10],28.488%
same,"H3.3: K36AC, % of peptide pool",[5]; [10],1.2917%
same,"H3.3: K36ME1, % of peptide pool",[5]; [10],11.4367%
same,"H3.3: K36ME2, % of peptide pool",[5]; [10],56.7436%
same,"H3.3: K36ME3, % of peptide pool",[5]; [10],20.5666%
same,"H3.3: K36UN, % of peptide pool",[5]; [10],9.961%
same,"H4: K5AC, % of peptide pool",[5]; [10],7.467%
same,"H4: K5UN, % of peptide pool",[5]; [10],92.5334%
same,"H4: K8AC, % of peptide pool",[5]; [10],11.3876%
same,"H4: K8UN, % of peptide pool",[5]; [10],88.6124%
same,"H4: K12AC, % of peptide pool","[5]; 2102EP cells, Mod Spec raw data, histone H4 K12 acetylated",6.714 % of peptide pool
same,"H4: K12UN, % of peptide pool","[5]; 2102EP cells, Mod Spec raw data, histone H4 K12 unmodified",93.2862 % of peptide pool
same,"H4: K16AC, % of peptide pool","[5]; 2102EP cells, Mod Spec raw data, histone H4 K16 acetylated",46.6822 % of peptide pool
same,"H4: K16UN, % of peptide pool","[5]; 2102EP cells, Mod Spec raw data, histone H4 K16 unmodified",53.3178 % of peptide pool
same,"H4: K20AC, % of peptide pool","[5]; 2102EP cells, Mod Spec raw data, histone H4 K20 acetylated",14.5151 % of peptide pool
same,"H4: K20ME2, % of peptide pool","[5]; 2102EP cells, Mod Spec raw data, histone H4 K20 dimethylated",53.9426 % of peptide pool
same,"H4: K20ME1, % of peptide pool","[5]; 2102EP cells, Mod Spec raw data, histone H4 K20 monomethylated",5.183 % of peptide pool
same,"H4: K20ME3, % of peptide pool","[5]; 2102EP cells, Mod Spec raw data, histone H4 K20 trimethylated",2.177 % of peptide pool
same,"H4: K20UN, % of peptide pool","[5]; 2102EP cells, Mod Spec raw data, histone H4 K20 unmodified",24.182 % of peptide pool
same,change of histone modifications of the expected mode of action (Mod Spec),[5]; [11],slightly increased H3K4me2/me3 marks
same,off-target changes of histone modifications (Mod Spec),[5]; [11],decrease in H4K16ac and H4K20ac
COc1cc(-c2cn(C)c(=O)c3cnccc23)cc(OC)c1CN1CCN(CCCCCOc2cc(-c3scnc3C)ccc2CNC(=O)[C@@H]2C[C@@H](O)CN2C(=O)[C@@H](NC(=O)C2(F)CC2)C(C)(C)C)CC1 [VZ185],pEC50,[6],4.30 to 6.00
same,pEC50,[7],4.30 to 6.00
same,pEC50,[8],4.30 to 6.00
same,EC50 / effective concentration in words,[1],low micromolar concentrations
